Assay results published in patent US8178654B2, “Estrogen receptor intramolecular folding systems, estrogen receptor intramolecular folding sensors, methods of use thereof, methods of detecting ER ligands, and methods of detecting ER agonists and antagonists” (Stanford University, priority 2006, dated 2012).

Tests used:
hERG521R = hERG521R (Homo sapiens, UniProt P03372, G400V/G521R); details: mutant human ER
Description: (§1) For transfection, 200 ng DNA/well were used in 12 well culture plates. Volumes of Lipofectamine were as recommended by the manufacturer. The co-transfection of 10 ng/well Fluc DNA served as control for normalizing transfection. The cells were assayed after 18 hours of incubation at 37° C. with 5% CO2. The luminometry assay for Renilla Luciferase activity was performed as per protocol published previously. In brief, the cells were lysed in 200 μl of 1× passive lysis buffer (Promega, Madison, Wis.) by shaking for 15 min at room temperature. The cell lysates were centrifuged for 5 min at 10,000 rpm at 4° C. Twenty μl of supernatants were assayed by adding 1 μg of substrate coelenterazine in 100 μl of 0.05M sodium phosphate buffer (pH 7.0) followed by photon counting in the luminometer (Turner Designs, model T 20/20, Sunnyvale, Calif.) for 10 s. The readings were normalized by measuring the protein concentration in the cell lysates and also by measuring the FLUC activity. Activity of RLUC was represented as normalized relative light units (RLU) per microgram of protein.

[1] = biological target: T1, hER281-549 (human estrogen receptor alpha ligand binding domain amino acids 281-549) (Homo sapiens, UniProt P03372, G400V); experiment: Ligand-induced intramolecular folding split RLUC complementation, N-RLUC-hER281-549-C-RLUC in transfected cells; assay type: cell-based; details: for ligand-induced RLUC complementation signal (in words): transfected cells, 1 μM ligand, 18 hours
T1 construct: expressed in transfected cells; host or cells: 293T (transient); also transfected MCF7 and MDA-MB231
T1 sequence (P03372 281-549 G400V): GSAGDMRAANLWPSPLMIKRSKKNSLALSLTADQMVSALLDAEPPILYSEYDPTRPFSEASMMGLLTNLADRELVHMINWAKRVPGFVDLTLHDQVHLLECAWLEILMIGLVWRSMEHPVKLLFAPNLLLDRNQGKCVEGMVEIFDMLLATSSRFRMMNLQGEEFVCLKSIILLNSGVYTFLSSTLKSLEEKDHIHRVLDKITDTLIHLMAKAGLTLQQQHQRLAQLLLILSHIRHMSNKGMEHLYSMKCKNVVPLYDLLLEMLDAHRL
Description: as §1
The cells were assayed for RLUC activity after 18 hours of incubation. The results were normalized as mentioned in the previous experiments.
The results were normalized as mentioned in the previous experiments.
(§2) The ligand agonists and antagonists specific intramolecular folding were studied in ER positive and negative cell lines. […] The cells exposed to solvent DMSO served as control. The same samples were analysed by Western blot for the detection of the transfected protein level using anti-RLUC antibody using the method mentioned above.

[2] = biological target: T2, fusion protein N-RLUC-hER281-549-C-RLUC in 293T cells (Homo sapiens, UniProt P03372, G400V); experiment: Western blot of sensor fusion protein level in transfected 293T cells (anti-RLUC antibody); assay type: cell-based; details: 1 μM ligand, 18 hours
T2 construct: expressed in transfected cells; host or cells: 293T (transient)
T2 sequence (P03372 281-549 G400V): T1 sequence (P03372 281-549 G400V)
Description: as §2

Chain of hERG521R (P03372 281-595 G400V/G521R): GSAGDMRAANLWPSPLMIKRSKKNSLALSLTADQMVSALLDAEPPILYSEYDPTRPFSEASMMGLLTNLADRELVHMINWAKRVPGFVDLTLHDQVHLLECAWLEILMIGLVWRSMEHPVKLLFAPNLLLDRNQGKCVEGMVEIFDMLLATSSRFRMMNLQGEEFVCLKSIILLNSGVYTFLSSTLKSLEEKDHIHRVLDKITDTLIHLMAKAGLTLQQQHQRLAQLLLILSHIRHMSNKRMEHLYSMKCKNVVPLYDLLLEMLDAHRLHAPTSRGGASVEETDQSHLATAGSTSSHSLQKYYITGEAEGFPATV

Compound	expressed fusion (sensor) protein level [2]	ligand-induced RLUC complementation signal (in words) [1]	further results
4-hydroxytamoxifen			receptor mediated RLUC complementation (hERG521R): 3-5%; RLUC complementation at different time points (in words) [1]: significant (P<0.0015) level of RLUC complementation; complemented Renilla Luciferase activity relative to cells before exposed to ligand [1]: 80±15 times; concentration dependence of RLUC activity (in words) [1]: increased RLUC activity
N.N.[Cl][Pt][Cl] [Cisplatinum]	significant reduction in the expressed fusion protein levels	not significantly different from cells transfected and not exposed to any ligands	
COc1cccc2c1C(=O)c1c(O)c3c(c(O)c1C2=O)C[C@@](O)(C(=O)CO)C[C@@H]3O[C@H]1C[C@H](N)[C@H](O)[C@H](C)O1 [Doxirubicin]		not significantly different from cells transfected and not exposed to any ligands	
O=C(O[C@@H]1Cc2c(O)cc(O)cc2O[C@@H]1c1cc(O)c(O)c(O)c1)c1cc(O)c(O)c(O)c1 [Epigallocatechin gallate]	significant reduction in the expressed fusion protein levels	not significantly different from cells transfected and not exposed to any ligands	
C[C@]12CC[C@@H]3c4ccc(O)cc4C[C@@H](CCCCCCCCC[S+]([O-])CCCC(F)(F)C(F)(F)F)[C@H]3[C@@H]1CC[C@@H]2O (stereo partly shown) [ICI182,780]	no significant level of degradation		
